In data set [1] the target is histamine-induced contraction of guinea pig ileum (Cavia porcellus, UniProt P31389). In words: Antihistaminic action (in vitro test), isotonic contraction of isolated ileum in response to histamine. As to conditions: histamine 10^-8 to 10^-4 M, 30 min after addition of test compound; for Kb: read-out: Anti-histaminic action pA2 (converted). As for the experimental part: (§1) Antihistaminic action and antileukotriene action (in vitro test):
(§2) A guinea pig was subjected to ileectomy, and the ileum was cut to have a length of about 2 cm. Each piece of ileum was suspended in a Tyrode's buffer placed in a 20-ml organ bath. Isotonic contraction in response to histamine or leukotriene D4 was recorded by use of a recording apparatus. The Tyrode's buffer was aerated with a gas mixture (95% O2 -5% CO2) while the temperature of the buffer was maintained at 30° C. Antihstaminic activity was tested by adding 10^-8 to 10^-4 M histamine to the organ bath and obtaining a dose-response curve. After washing with a buffer several times, a test compound was added to the organ bath. Thirty minutes later, another dose-response curve of histamine was obtained. For the test of antileukotriene activity, effects exerted by addition of a 10^-5 M test compound on the contraction included with 10^-8 M LTD4 was investigated.

Data set [2] deals with leukotriene D4 (LTD4)-induced contraction of guinea pig ileum. In words: Antileukotriene action (in vitro test), isotonic contraction of isolated ileum induced with LTD4. The note with it: Cavia porcellus; test compound 10^-5 M, contraction with 10^-8 M LTD4; read-out: LTD4 action (inhibition exerted by a test compound at 10^-5 M). As for the experimental part:
as §1, §2

Data set [3] concerns the target T1, LTD4 Receptor (Cavia porcellus, UniProt Q2NNR5).
T1 construct: guinea pig lung protein; from tissue; host or cells: guinea pig lung
T1 sequence (Q2NNR5 1-340): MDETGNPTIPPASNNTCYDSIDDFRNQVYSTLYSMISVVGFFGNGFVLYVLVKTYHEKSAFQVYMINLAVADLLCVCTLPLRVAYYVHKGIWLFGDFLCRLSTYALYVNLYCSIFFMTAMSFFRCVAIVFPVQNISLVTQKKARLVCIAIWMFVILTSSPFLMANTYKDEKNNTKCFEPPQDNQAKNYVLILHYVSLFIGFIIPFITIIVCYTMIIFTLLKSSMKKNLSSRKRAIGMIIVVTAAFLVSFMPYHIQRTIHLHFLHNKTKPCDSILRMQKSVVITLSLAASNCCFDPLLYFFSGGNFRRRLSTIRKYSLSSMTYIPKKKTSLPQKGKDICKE
In words: LTD4 Receptor binding inhibitory test ([^3 H] leukotriene D4). Also on record: species or system guinea pig. As for the experimental part:
LTD4 Receptor binding inhibitory test:
Reaction was stopped by addition of ice-cold Tris-HCl/NaCl (10 mM/100 mM, pH 7.5) buffer, and immediately thereafter, the reaction mixture was filtered by use of a Wattman CF/C filter. The filter was washed twice, each time with 20 ml ice-cold buffer. Radioactivity of the residue was measured by use of a liquid scintillation counter. […] In a saturation test, 2 μM leukotriene D4 was used for the measurement of the amount of non-specific binding.

Data set [4] has as its target H1 receptor (Cavia porcellus, UniProt P31389). In words: biochemical. Format: binding, guinea pig. As for the experimental part:
H1 receptor binding inhibitory test:
Reaction was stopped by addition of ice-cold phosphate buffer, and immediately thereafter, the reaction mixture was filtered by use of a Wattman CF/C filter. The filter was washed twice, each time with 20 ml ice-cold buffer. Radioactivity of the residue was measured by use of a liquid scintillation counter. From the value as obtained when a test compound was not added and values as obtained when the test compound was added at different concentrations, there was determined a dose-response curve representing suppression action of the test compound, from which a 50% inhibitory concentration (IC50) was obtained. Based on the IC50 value and by use of the Cheng-Prusoff equation, a dissociation constant (KD) was calculated (Table 4). In a saturation test, 10^-4 M R(-)-dimethindene was used for the measurement of the amount of non-specific binding.

In data set [5] the target is T2, H1 receptor (Mus musculus, UniProt P70174).
T2 construct: from tissue; host or cells: mouse brain homogenate after intraperitoneal dosing
In words: Test on migration into the brain (ex vivo [^3 H]mepyramine binding in mouse brain after intraperitoneal administration). Also noted: species or system mice. As to conditions: ip. As for the experimental part:
Test on migration into the brain:
The test was performed in accordance with a method described by Zang. […] Briefly, several mice each weighing 20-23 g were provided, and to each mouse was intraperitoneally administered a test sample having a predetermined concentration. One hour later, each mouse was sacrificed and its brain was removed. The brain tissue was mixed with 30 mM Na, K phosphate buffer (pH 7.5) so as to attain a concentration of 40 ml/g wet weight, and the mixture was homogenized. […] The mixture was incubated at 37° C. for 50 minutes. Subsequently, reaction was stopped by addition of ice-cold phosphate buffer, and immediately thereafter, the reaction mixture was filtered by use of a Wattman CF/C filter. The filter was washed twice, each time with 20 ml ice-cold buffer. Radioactivity of the residue was measured by use of a liquid scintillation counter. […] The cerebral migration index, BPindex, was calculated from the following equation.
BPindex=IC50 (mg/kg)/dissociation constant for H1 recepters (nM)

Data set [6] concerns leukotriene D4 (LTD4)-induced contraction of guinea pig ileum. In words: Antileukotriene action (in vitro test), isotonic contraction of isolated ileum induced with LTD4. The note with it: Cavia porcellus; contraction with 10^-8 M LTD4.

Where a name gives a salt, the structure may show the parent alone.

Sequence of histamine-induced contraction of guinea pig ileum (P31389 whole entry): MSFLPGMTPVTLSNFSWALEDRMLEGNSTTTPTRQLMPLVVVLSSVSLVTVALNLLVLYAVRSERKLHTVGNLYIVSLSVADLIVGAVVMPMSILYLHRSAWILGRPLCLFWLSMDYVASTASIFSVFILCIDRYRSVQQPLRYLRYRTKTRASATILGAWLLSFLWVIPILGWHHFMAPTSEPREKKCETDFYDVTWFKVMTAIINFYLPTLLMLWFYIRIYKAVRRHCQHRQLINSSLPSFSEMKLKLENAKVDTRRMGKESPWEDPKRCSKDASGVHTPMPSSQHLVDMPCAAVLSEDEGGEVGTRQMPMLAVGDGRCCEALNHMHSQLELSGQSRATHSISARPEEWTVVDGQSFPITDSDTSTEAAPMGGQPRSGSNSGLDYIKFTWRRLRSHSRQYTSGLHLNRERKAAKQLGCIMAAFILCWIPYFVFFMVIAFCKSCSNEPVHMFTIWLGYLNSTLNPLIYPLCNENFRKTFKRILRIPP
Sequence of H1 receptor (Cavia porcellus, UniProt P31389) (P31389 whole entry): as above
T2 sequence (P70174 whole entry): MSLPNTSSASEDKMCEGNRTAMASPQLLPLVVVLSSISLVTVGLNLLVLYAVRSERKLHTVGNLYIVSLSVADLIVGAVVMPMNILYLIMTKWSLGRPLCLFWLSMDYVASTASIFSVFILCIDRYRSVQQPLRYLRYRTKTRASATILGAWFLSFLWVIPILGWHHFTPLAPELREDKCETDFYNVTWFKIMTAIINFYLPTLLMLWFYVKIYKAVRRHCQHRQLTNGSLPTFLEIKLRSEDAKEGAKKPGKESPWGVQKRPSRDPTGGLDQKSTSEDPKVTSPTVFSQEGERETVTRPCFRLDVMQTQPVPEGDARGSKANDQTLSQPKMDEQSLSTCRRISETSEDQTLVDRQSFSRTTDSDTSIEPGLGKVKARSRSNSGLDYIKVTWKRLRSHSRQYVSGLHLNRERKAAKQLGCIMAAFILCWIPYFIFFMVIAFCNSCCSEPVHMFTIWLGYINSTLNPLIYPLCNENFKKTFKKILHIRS

As usually defined, the inhibition is the percentage by which the read-out fell short of the control. In the case of `O=C1CSc2cc(OCCCN3CCC(=Cc4ccc5ccccc5n4)CC3)ccc2N1` [Example 2, 7-[3-[4-(2-Quinolylmethylene)piperidino]propoxy]-3,4-dihydro-2H-1,4-benzothiazin-3-one], the “Anti-histaminic action pD'2” value in data set [1] is 8.22. Further, in data set [2], the inhibition at 10 µM was 21%.
The term Kd denotes the constant that tells how readily two partners part at equilibrium. Low values mean a tighter complex, high ones a looser complex. `Cc1ccc(OCCCN2CCC(=Cc3ccc4ccccc4n3)CC2)c2c1NC(=O)CC2` [Example 3, 8-Methyl-5-[3-[4-(2-quinolylmethylene)piperidino]propoxy]-1,2,3,4-tetrahydroquinolin-2-one]: the Kb in data set [1] was 0.141 nM. For the same molecule, in data set [2], the inhibition at 10 µM came out at 77%. Moreover, in data set [3], the Kd stood at 55000 nM.
Regarding `O=C1CCc2cc(OCCN3CCC(=Cc4ccc5ccccc5n4)CC3)ccc2N1` [Example 4, 6-[2-[4-(2-Quinolylmethylene)piperidino]ethoxy]-1,2,3,4-tetrahydroquinolin-2-one], the Kd in data set [4] amounted to 164 nM; in data set [3], 12700 nM.
Taken in the same sequence, the figures for `O=C1CCc2cc(OCCCN3CCC(=Cc4ccc5ccccc5n4)CC3)ccc2N1` [Example 5, 6-[3-[4-(2-Quinolylmethylene)piperidino]propoxy]-1,2,3,4-tetrahydroquinolin-2-one] were 0.0469 nM and 54400 nM.
As for `O=C1CCc2cccc(OCCCN3CCC(=Cc4ccc5ccccc5n4)CC3)c2N1` [Example 8, 8-[3-[4-(2-Quinolylmethylene)piperidino]propoxy]-1,2,3,4-tetrahydroquinolin-2-one oxalate], the Kb in data set [1] is 0.224 nM. Moreover, the inhibition at 10 µM in data set [2] worked out at 30%.
In the same order, the values of `O=C1CCc2ccc(OCCCN3CCC(=Cc4ccc5ccccc5n4)CC3)cc2N1` [Example 9, 7-[3-[4-(2-Quinolylmethylene)piperidino]propoxy]-1,2,3,4-tetrahydroquinolin-2-one oxalate] are 2.95 nM and 15%.
Consider `Cc1ccc(OCCN2CCC(=Cc3ccc4ccccc4n3)CC2)c2ccc(=O)[nH]c12` [Example 10, 8-Methyl-5-[2-[4-(2-quinolylmethylene)-piperidino]ethoxy]carbostyryl], for which, in data set [1], the Kb is 0.0832 nM. Also, in data set [5] (brain, BPindex = IC50 (mg/kg)/dissociation constant for H1 receptors (nM), read-out: cerebral migration index, BP index), the selectivity ratio at 1 h was found to be 930. Moreover, the ED50 in data set [5] (1 h, read-out: IC50 (ex vivo)) stood at 33 mg/kg. Also, the Kd in data set [4] is 0.0351 nM; in data set [3], 9860 nM. Moreover, in data set [2], the inhibition at 10 µM came out at 61%.
As for `Cc1ccc(OCCCN2CCC(=Cc3ccc4ccccc4n3)CC2)c2ccc(=O)[nH]c12` [Example 11, 8-Methyl-5-[3-[4-(2-quinolylmethylene)-piperidino]propoxy]carbostyryl], the Kb in data set [1] was 0.219 nM. The inhibition at 10 µM in data set [2] was 39%. The molecule further gave a Kd in data set [3] of 20000 nM.
Consider `O=C1CCCc2cc(OCCCN3CCC(=Cc4ccc5ccccc5n4)CC3)ccc2N1` [Example 12, 7-[3-[4-(2-Quinolylmethylene)piperidino]propoxy]-2,3,4,5-tetrahydro-1H-benz[b]azepin-2-one oxalate], for which the Kb in data set [1] was 0.178 nM. Moreover, the Kd in data set [4] worked out at 0.0238 nM; in data set [3], 15800 nM. Besides, the inhibition at 10 µM in data set [2] turned out to be 12%.
In the same order, the values of `O=C1NCCCc2cc(OCCCN3CCC(=Cc4ccc5ccccc5n4)CC3)ccc21` [Example 13, 7-[3-[4-(2-Quinolylmethylene)piperidino]propoxy]-2,3,4,5-tetrahydro-1H-benz[c]azepin-1-one oxalate] are 0.174 nM, 1.15 nM, 19000 nM and 39%.
Consider `C(=C1CCN(CCCOc2ccc3c(c2)CCCc2nnnn2-3)CC1)c1ccc2ccccc2n1` [Example 14, 8-[3-[4-(2-Quinolylmethylene)piperidino]propoxy]-5,6-dihydro-4H-tetrazolo[1,5-a]benz[b]azepine oxalate], for which, in data set [1], the Kb was 0.0525 nM. In addition, the inhibition at 10 µM in data set [2] stood at 40%. Besides, the Kd in data set [3] stood at 98900 nM.
For `Cc1ccc(OCCCN2CCC(Cc3ccc4ccccc4n3)CC2)c2c1NC(=O)C2(C)C` [Example 15, 4-[3-[4-(2-quinolylmethyl)piperidino]-propoxy]-3,3,7-trimethyl-2,3-dihydro-1H-indol-2-one], in data set [1], the Kb was 0.324 nM. Besides, the Kd in data set [4] is 3.1 nM; in data set [3] it was 8060 nM. Also, in data set [2], the inhibition at 10 µM was found to be 19%.
With `O=C1CSc2cc(OCCCN3CCC(Cc4ccc5ccccc5n4)CC3)ccc2N1` [Example 16, 7-[3-[4-(2-Quinolylmethyl)piperidino]propoxy]-3,4-dihydro-2H-1,4-benzothiazin-3-one], in data set [1], the “Anti-histaminic action pD'2” value worked out at 8.01. Moreover, the inhibition at 10 µM in data set [2] was found to be 15%.
Take `Cc1ccc(OCCN2CCC(Cc3ccc4ccccc4n3)CC2)c2c1NC(=O)CC2` [Example 17, 8-Methyl-5-[2-[4-(2-quinolylmethyl)piperidino]ethoxy]-1,2,3,4-tetrahydroquinolin-2-one]: in data set [1], the Kb was 0.166 nM. Also, the inhibition at 10 µM in data set [2] was determined as 23%.
The IC50 is the midpoint of a concentration-inhibition curve. Read a low IC50 as inhibition by little substance. For `Cc1ccc(OCCN2CCC(Cc3ccc4ccccc4n3)CC2)c2ccc(=O)[nH]c12` [Example 25, 8-Methyl-5-[2-[4-(2-quinolylmethyl)-piperidino]ethoxy]carbostyryl], the midpoint of inhibition in data set [6], the IC50, lay at 3400 nM. Further, the Kb in data set [1] is 0.468 nM. The inhibition at 10 µM in data set [2] stood at 88%.
As to `Cc1ccc(OCCCN2CCC(Cc3ccc4ccccc4n3)CC2)c2ccc(=O)[nH]c12` [Example 26, 8-Methyl-5-[3-[4-(2-quinolylmethyl)-piperidino]propoxy]carbostyryl], the Kb in data set [1] was 0.162 nM. Also, the inhibition at 10 µM in data set [2] was found to be 29%.

The values are drawn from patent publication US6107308A, “Piperidine derivatives” (Kowa Co., Ltd., priority 1997, dated 2000).
